“Also recorded” adds a separate entry of the source.
Key:
recombinant calcineurin = molecular target: T1, recombinant calcineurin (Homo sapiens, UniProt Q08209); test: Fluorimetric calcineurin assay with recombinant calcineurin and standard controls; type: biochemical; conditions: 0.2 ng recombinant calcineurin, ANOVA
T1 construct: purchased Calbiochem (San Diego, Calif.)
Protocol: Reactions using 0.2 ng of recombinant calcineurin along with standard controls for calcineurin activity, including heat inactivation of the recombinant enzyme, addition of an autoinhibitory peptide, absence of calcium, and chelation of calcium with EGTA were investigated.
Recombinant calcineurin was from Calbiochem (San Diego, Calif.), and all other chemicals were obtained from Sigma (St Louis, Mo.). The RII peptide, Fluoresceinyl-[…]frican-AmericanE, and its phosphorylated analog (Fluoresceinyl-[…]pSVAfrican-AmericanE where pS=L-phosphoserine) were synthesized by Fmoc-based solid-phase peptide synthesis using model Liberty microwave-assisted peptide synthesizer (CEM Corporation, Matthews, N.C.). The peptides were purified to apparent homogeneity by reversed-phase HPLC and their masses were confirmed by mass spectrometry. Peptides were diluted in: Tris 50 mM, 100 mM NaCl, 0.5 mM DTT, and 0.1 mg/ml bovine serum albumen to a final concentration of 30 ng/ml. Reaction buffer consisted of 0.1 mg/ml BSA, 35 mM Tris pH 7.5, 25 mM NaCl, 2.0 mM MgCl2, 270 μM DTT, 500 μM EDTA, 419 nM Okadaic acid (in 0.63% ethanol), 25 mM CaCl2. Titanium oxide plates were pre-incubated with a binding buffer consisting of 0.1% acetic acid in 10% acetonitrile. […]

calcineurin [1] = test: Fluorimetric calcineurin assay in isolated PBMCs (PMA or anti-CD3 stimulation, in vitro calcineurin inhibitors); type: cell-based, human
Protocol: It was also shown that the fold change in calcineurin activity in response to anti-CD3 was sensitive to tacrolimus inhibition. Thus, PBMCs from control subjects were incubated with increasing amounts of tacrolimus before the anti-CD3 stimulation and the calcineurin activity was then measured.
It was further determined whether in vitro addition of calcineurin inhibitors could further inhibit calcineurin activity in samples from transplant subjects.
(i) Collection of samples. Heparinized blood can be obtained by routine phlebotomy and PBMC isolated and frozen in 10% DMSO. Samples will be thawed and viability confirmed prior to treatment.
(ii) Treatment of T cells. Three parameters of calcineurin activity: 1) base-line levels of the enzyme; 2) the increase in calcineurin in response to general stimuli; and, 3) the response of calcineurin to T cell receptor specific activation.
PBMCs were thawed, viable cells counted and then separated into aliquots of about 2×10^5 cells. Based on preliminary experiments, samples were treated with anti-CD3 (Muromonab, 10 μg/ml) antibodies for 15 mins at 37° C. Based on preliminary dose and time curves, PMA was added to aliquots for 5 mins. Control samples were included with either no treatment or adjuvant-only (DMSO). These manipulations yielded base-line activity, maximum non-specific activation, and TCR-stimulated activity.
(iii) 20 μl diluted peptide substrate, 20 μl of reaction buffer, and 20 μl of sample were loaded into individual wells of a 96-well plate and incubated at 30° C. for 10 minutes. During the reaction time, a 96-well plate with titanium oxide-coated wells was prepared by adding 50 μl binding buffer (0.1% acetic acid in 10% acetonitrile) per well. After the incubation period, reactions were transferred into prepared titanium oxide-coated wells following by gentle shaking for 5 minutes. The contents of each well were then removed to a white 96-well plate preloaded with 20 μl of 3N ammonium hydroxide.

calcineurin [2] = test: Fluorimetric calcineurin assay in cultured primary renal fibroblasts
Protocol: FIG. 16A: Cultured renal fibroblasts were treated with a variety of stimuli including arginine vasopressin (AVP), dexamethasone, and phorbol myristate acetate (PMA) to induce calcineurin activity. In addition, some cells were pre-treated with calcineurin inhibitors prior to the addition of PMA. Cells were lysed according to previously established methods and then calcineurin activity was determined. Data shown is the mean+/−SEM of triplicate samples compared to a standard curve. […] Tissues were lysed according to previously established methods and calcineurin activity determined. Data shown are the mean+/−SEM of triplicate samples compared to a standard curve.
When the absorbance values obtained were compared to a standard curve of recombinant calcineurin run simultaneously, a determination of calcineurin activity in each condition can be made.

calcineurin [3] = test: Radiometric calcineurin assay in isolated T cells after T cell receptor stimulation with anti-CD3/anti-CD28 antibodies, with or without inhibitor pre-treatment; type: cell-based, human; conditions: for effect of pre-treatment on anti-CD3/anti-CD28-stimulated calcineurin activity (words): control T cells, tacrolimus/FK506 5 ng/ml, cyclosporine A printed as 500 ng/ml, 5 μg/ml or 5 mg/ml
Protocol: (§1) 40 mLs of heparinized blood was collected from the study participants. T cells were then isolated using the Prepacyte SC reagent (BioE WBP2000 St. Paul Minn.) antibody negative selection and Vitalyse (BioE KI-135) treated to eliminate remaining erythrocytes. Cells were pelleted by centrifugation, washed with 1× phosphate-buffered saline, and resuspended in RPMI 1640 containing penicillin/streptomycin antibiotics, 10% fetal calf serum, 2 mM 1-glutamine, 25 mM glucose, and 1 mM sodium pyruvate.
(§2) Calcineurin activity was determined using an in vitro assay as described in Fruman et al, Methods in Enzymology 9, 146-154 (1996) and Lea et al., J Am Soc Nephrol 13, 1750-1756 (2002), both of which are incorporated herein by reference in their entireties. Following treatment, isolated lymphocytes were pelleted and then re-suspended in calcineurin buffer ([…], 250 μM KCl, 10 mg/ml BSA, 5 mg/ml DTT, pH 7.5). Cells were then lysed by three cycles of freeze-thawing in liquid nitrogen and a 37° C. water bath. The concentration of harvested proteins was determined by the BCA method (Pierce Biotechnology, Rockford, Ill.) and then […] of sample was incubated with equal volumes of calcineurin reaction buffer (100 nM calmodulin, 0.1 mM CaCl, 25 μgs calyculin, 3 μg cold RII peptide) and 30 γ^32P[ATP]-labeled RII peptide substrate.
(§3) The reaction was allowed to proceed for 10 minutes, and then 10 mgs/ml charcoal/TCA solution was added to each sample to stop the reaction. Finally, samples were passed through millipore filtration buckets, scintillation fluid added, and the amount of released phosphates read in an automated counter. Reactions were performed in triplicate and final data for subjects were calculated as the mean of triplicate samples minus control reactions to normalize for background.
T cell isolates were stimulated for 15 minutes with multiple agents including calcium ionophore, phorbal myristate […] (PMA), and anti-CD3/CD28 antibodies. […] Next, T cells were pre-treated for 30 minutes with cyclosporine (5 mg/ml) or FK506 (5 ng/ml) and then CD3/CD28-mediated stimulation was measured.

[4] = human, in vivo
Protocol: Stimulation of calcineurin activity was also determined for caucasian and African-American transplant patients. […] Trough blood levels of FK506 for both caucasian and African-American transplant patients were obtained at the time of T cell isolation.

calcineurin [5] = test: Radiometric calcineurin assay, basal activity in isolated CD3+/4+ T cells treated in vitro; type: cell-based, human; conditions: for inhibition of basal calcineurin activity: 5 ng/ml
Protocol: as §1, §2, §3
To ensure that calcineurin activity was measured in a uniform population of cells, experiments were performed in isolated lymphocytes that were enriched for CD3^+/4^+ T cells using erythrocyte lysis, gradient centrifugation, and Prepacyte SC reagent (BioE, St. Paul Minn.).
First, T cells were isolated from control subjects and were then treated in vitro with vehicle (DMSO) or 5 ng/ml tacrolimus for 15 minutes.

O=C(O)CN(CCOCCOCCN(CC(=O)O)CC(=O)O)CC(=O)O [EGTA]
effect on dephosphorylation by recombinant calcineurin (recombinant calcineurin): significantly reduced

anti-CD3: anti-CD3 (Muromonab, 10 μg/ml) antibodies for TCR-specific activation without co-stimulation
stimulation of calcineurin activity (calcineurin [1]; control PBMCs): observed only in control PBMCs

CCCCCCCCCCCCCC(=O)O[C@@H]1[C@@H](C)[C@@]2(O)[C@@H](C=C(CO)C[C@]3(O)C(=O)C(C)=C[C@@H]23)[C@@H]2C(C)(C)[C@]12OC(C)=O [PMA, phorbol myristate acetate]
stimulation of calcineurin activity (calcineurin [1]; control PBMCs): stimulated calcineurin activity in control cells
stimulation of calcineurin activity (calcineurin [1]; transplant recipient-derived PBMCs): not in the transplant recipient-derived PBMC samples
stimulation of calcineurin activity (calcineurin [2]): significantly stimulated calcineurin activity

C=CC[C@@H]1/C=C(\C)C[C@H](C)C[C@H](OC)[C@H]2O[C@@](O)(C(=O)C(=O)N3CCCC[C@H]3C(=O)O[C@H](/C(C)=C/[C@@H]3CC[C@@H](O)[C@H](OC)C3)[C@H](C)[C@@H](O)CC1=O)[C@H](C)C[C@@H]2OC [tacrolimus]
effect on fold change in calcineurin activity with anti-CD3 stimulation (calcineurin [1]; control PBMCs incubated with increasing amounts before anti-CD3 stimulation): inhibited by tacrolimus in a dose-dependent fashion; also recorded: inhibited in control PBMCs in a dose-responsive manner
effect of pre-treatment on anti-CD3/CD28-stimulated calcineurin activity (calcineurin [3]; African-American control subjects, listed as FK506): neither cyclosporine A nor FK506 significantly reduced calcineurin activity; also recorded: neither cyclosporine nor FK506 pre-treatment inhibited calcineurin activity
effect of pre-treatment on anti-CD3/CD28-stimulated calcineurin activity (calcineurin [3]; caucasian control subjects): inhibited
effect of pre-treatment on anti-CD3/anti-CD28-stimulated calcineurin activity (words) (calcineurin [3]): blocked the CD3/CD28 stimulation; also recorded: blocked the rise in calcineurin activity; also recorded: effective at blocking the induction
effect of pre-treatment on anti-CD3/anti-CD28-stimulated calcineurin activity (words) (calcineurin [3]; listed as FK506): significantly reduced CD3/CD28-mediated calcineurin activity; also recorded: blocked stimulation
mean plasma level [4]: 11.4 ng/mL
effect of pre-treatment on PMA-stimulated calcineurin activity (calcineurin [2]): blocked stimulation by PMA
effect on basal calcineurin activity (calcineurin [5]; control T cells (N=81), 5.0 ng/ml in vitro, p<0.001): significantly decreased calcineurin activity
calcineurin activity after in vitro tacrolimus (calcineurin [5]; control subjects' T cells, 5 ng/ml for 15 minutes, vehicle (DMSO) 913±6): 662±6 fmole/μg protein/min
inhibition of basal calcineurin activity (calcineurin [5]; female control subjects): 30±4%
inhibition of basal calcineurin activity (calcineurin [5]; male control subjects): 27±4%

NC(=O)CC[C@@H]1NC(=O)[C@H](Cc2ccccc2)NC(=O)[C@H](Cc2ccc(O)cc2)NC(=O)[C@@H](N)CSSC[C@@H](C(=O)N2CCC[C@H]2C(=O)N[C@@H](CCCN=C(N)N)C(=O)NCC(N)=O)NC(=O)[C@H](CC(N)=O)NC1=O [Arginine vasopressin (AVP), arginine vasopressin]
stimulation of calcineurin activity (calcineurin [2]): significantly stimulated calcineurin activity

From patent publication US8546095B2, “Methods for determination of calcineurin activity and uses in predicting therapeutic outcomes” (Emory University, priority 2007, dated 2013)
